± gives the standard deviation of the averaged measurements.
How the values were obtained:
Assay in all cases: relative viability vs DMSO control (72 h) (fraction); higher = more viable cells
KHOS-240S = system: KHOS-240S
How it was run: (§1)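 Percent growth from ATPLite readings, averaged over up to triplicate wells, was used as relative viability. Sarcoma cell lines were seeded into 384-well plates for 80–90% confluence, dosed after 24 h, and kept 72 h at 37 °C, 5% CO2. Data were rescaled to a range where 1 is full and 0 is none.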

SW982 = system: SW982
How it was run: as §1

RD-ES = system: RD-ES
How it was run: as §1

SK-ES-1 = system: SK-ES-1
How it was run: as §1

RD = system: RD
How it was run: as §1

CC(C)(C)c1nc(-c2cccc(NS(=O)(=O)c3c(F)cccc3F)c2F)c(-c2ccnc(N)n2)s1 [Dabrafenib]
relative viability
Details | KHOS-240S | RD | RD-ES | SK-ES-1 | SW982
0.00017 µM | 1.07 ± 0.061 | 1.07 ± 0.046 | 0.94 ± 0.035 | 1.01 ± 0.07 | 1 ± 0.012
0.00051 µM | 1.06 ± 0.054 | 1.07 ± 0.07 | 0.924 ± 0.078 | 1.04 ± 0.058 | 0.988 ± 0.066
0.00152 µM | 1.04 ± 0.071 | 1.07 ± 0.04 | 0.948 ± 0.041 | 1 ± 0.041 | 0.974 ± 0.032
0.00457 µM | 1.03 ± 0.056 | 1.11 ± 0.074 | 0.94 ± 0.039 | 1.02 ± 0.065 | 0.886 ± 0.025
0.01372 µM | 1.01 ± 0.043 | 1.12 ± 0.064 | 0.911 ± 0.053 | 0.987 ± 0.065 | 0.85 ± 0.0099
0.04115 µM | 1 ± 0.053 | 1.1 ± 0.071 | 0.872 ± 0.027 | 0.927 ± 0.043 | 0.779 ± 0.043
0.1235 µM | 1.03 ± 0.052 | 1.1 ± 0.099 | 0.838 ± 0.03 | 0.794 ± 0.055 | 0.701 ± 0.036
0.3704 µM | 1.01 ± 0.054 | 0.989 ± 0.11 | 0.706 ± 0.04 | 0.524 ± 0.044 | 0.469 ± 0.032
1.111 µM | 0.975 ± 0.059 | 0.915 ± 0.11 | 0.531 ± 0.012 | 0.368 ± 0.013 | 0.384 ± 0.03
3.333 µM | 0.964 ± 0.095 | 0.871 ± 0.071 | 0.508 ± 0.054 | 0.41 ± 0.01 | 0.369 ± 0.0075
10 µM | 0.854 ± 0.061 | 0.846 ± 0.1 | 0.557 ± 0.21 | – | 0.356 ± 0.022

Cn1ncnc1[C@H]1c2n[nH]c(=O)c3cc(F)cc(c23)N[C@@H]1c1ccc(F)cc1 [Talazoparib]
relative viability
Details | KHOS-240S | RD | RD-ES | SK-ES-1 | SW982
0.00017 µM | 0.9825 ± 0.0067 | 0.904 ± 0.025 | 0.976 ± 0.025 | 0.961 ± 0.05 | 0.911 ± 0.025
0.00051 µM | 1.01 ± 0.023 | 0.945 ± 0.031 | 0.95 ± 0.034 | 0.9 ± 0.02 | 0.906 ± 0.061
0.00152 µM | 0.982 ± 0.019 | 0.923 ± 0.052 | 0.904 ± 0.043 | 0.825 ± 0.025 | 0.904 ± 0.053
0.00457 µM | 0.969 ± 0.02 | 0.869 ± 0.026 | 0.844 ± 0.052 | 0.614 ± 0.021 | 0.862 ± 0.069
0.01372 µM | 0.948 ± 0.021 | 0.842 ± 0.023 | 0.609 ± 0.02 | 0.33 ± 0.018 | 0.785 ± 0.035
0.04115 µM | 0.921 ± 0.032 | 0.789 ± 0.019 | 0.191 ± 0.013 | 0.173 ± 0.0092 | 0.729 ± 0.038
0.1235 µM | 0.872 ± 0.061 | 0.72 ± 0.037 | 0.0431 ± 0.0018 | 0.109 ± 0.0089 | 0.615 ± 0.051
0.3704 µM | 0.824 ± 0.02 | 0.718 ± 0.045 | 0.0199 ± 0.0028 | 0.0754 ± 0.0047 | 0.602 ± 0.0075
1.111 µM | 0.677 ± 0.026 | 0.629 ± 0.045 | 0.0127 ± 0.0016 | 0.0494 ± 0.0078 | 0.499 ± 0.073
3.333 µM | 0.524 ± 0.023 | 0.586 ± 0.032 | 0.00913 ± 0.0015 | 0.0309 ± 0.0019 | 0.409 ± 0.021
10 µM | 0.457 ± 0.023 | 0.577 ± 0.033 | 0.0143 ± 0.001 | 0.0277 ± 0.0025 | 0.361 ± 0.026

Cc1[nH]c(/C=C2\C(=O)Nc3ccc(F)cc32)c(C)c1C(=O)NCCN1CCCC1 [Toceranib]
relative viability
Details | KHOS-240S | RD | RD-ES | SK-ES-1 | SW982
68 pM | 1.08 ± 0.016 | 1.06 ± 0.052 | 0.976 ± 0.036 | 1.01 ± 0.024 | 0.951 ± 0.061
0.000203 µM | 1.105 ± 0.0033 | 1.09 ± 0.023 | 0.948 ± 0.014 | 1.02 ± 0.033 | 0.984 ± 0.036
0.0006 µM | 1.08 ± 0.028 | 1.14 ± 0.025 | 0.964 ± 0.025 | 1 ± 0.022 | 0.962 ± 0.048
0.0018 µM | 1.11 ± 0.037 | 1.07 ± 0.064 | 0.943 ± 0.022 | 0.995 ± 0.071 | 1.01 ± 0.054
0.0055 µM | 1.03 ± 0.032 | 1.08 ± 0.01 | 0.9493 ± 0.008 | 0.996 ± 0.052 | 0.985 ± 0.061
0.0165 µM | 0.989 ± 0.034 | 1.08 ± 0.023 | 0.937 ± 0.038 | 0.98 ± 0.05 | 1 ± 0.083
0.0494 µM | 0.974 ± 0.078 | 1.11 ± 0.025 | 0.924 ± 0.033 | 0.972 ± 0.026 | 0.929 ± 0.038
0.1481 µM | 0.941 ± 0.11 | 1.08 ± 0.073 | 0.902 ± 0.011 | 0.913 ± 0.065 | 0.993 ± 0.11
0.444 µM | 0.865 ± 0.099 | 1.08 ± 0.06 | 0.821 ± 0.022 | 0.802 ± 0.069 | 0.948 ± 0.04
1.333 µM | 0.705 ± 0.066 | 1.05 ± 0.026 | 0.615 ± 0.012 | 0.43 ± 0.016 | 0.571 ± 0.018
4 µM | 0.491 ± 0.041 | 0.786 ± 0.031 | 0.176 ± 0.018 | 0.165 ± 0.017 | 0.31 ± 0.027

CC[C@@H]1CN(C(=O)NCC(F)(F)F)C[C@@H]1c1cnc2cnc3[nH]ccc3n12 [Upadacitinib]
relative viability
Details | KHOS-240S | RD | RD-ES | SK-ES-1 | SW982
0.00017 µM | 1.09 ± 0.05 | 1.07 ± 0.017 | 0.981 ± 0.026 | 1.02 ± 0.067 | 1.01 ± 0.025
0.00051 µM | 1.06 ± 0.054 | 1.08 ± 0.036 | 0.979 ± 0.036 | 1.01 ± 0.011 | 1.022 ± 0.01
0.00152 µM | 1.09 ± 0.084 | 1.13 ± 0.026 | 1 ± 0.024 | 1.05 ± 0.042 | 1.05 ± 0.029
0.00457 µM | 1.1 ± 0.083 | 1.13 ± 0.079 | 0.979 ± 0.05 | 1.02 ± 0.071 | 1.05 ± 0.034
0.01372 µM | 1.08 ± 0.087 | 1.14 ± 0.043 | 1 ± 0.02 | 1.02 ± 0.025 | 1.052 ± 0.0073
0.04115 µM | 1.09 ± 0.08 | 1.14 ± 0.03 | 0.99 ± 0.036 | 1 ± 0.045 | 1.04 ± 0.02
0.1235 µM | 1.06 ± 0.084 | 1.08 ± 0.044 | 0.97 ± 0.053 | 1.058 ± 0.0072 | 1.06 ± 0.012
0.3704 µM | 1.04 ± 0.057 | 1.14 ± 0.07 | 0.974 ± 0.023 | 1.01 ± 0.03 | 1.043 ± 0.0088
1.111 µM | 0.982 ± 0.075 | 1.14 ± 0.066 | 0.964 ± 0.02 | 0.982 ± 0.057 | 1 ± 0.085
3.333 µM | 0.919 ± 0.063 | 1.07 ± 0.073 | 0.996 ± 0.042 | 0.986 ± 0.01 | 0.969 ± 0.048
10 µM | 0.708 ± 0.031 | 1 ± 0.053 | 0.989 ± 0.055 | 0.907 ± 0.097 | 0.779 ± 0.026

O=C1NC(=O)[C@@H](c2cn3c4c(cccc24)CCC3)[C@@H]1c1c[nH]c2ccccc12 [Tivantinib]
relative viability
Details | KHOS-240S | RD | RD-ES | SK-ES-1 | SW982
0.00017 µM | 1.03 ± 0.022 | 1.05 ± 0.01 | 0.948 ± 0.022 | 1.01 ± 0.074 | 1.05 ± 0.067
0.00051 µM | 1.03 ± 0.019 | 1.09 ± 0.049 | 0.967 ± 0.019 | 1.04 ± 0.028 | 1.04 ± 0.03
0.00152 µM | 1.05 ± 0.023 | 1.09 ± 0.036 | 0.986 ± 0.035 | 1 ± 0.076 | 1.04 ± 0.034
0.00457 µM | 1.04 ± 0.032 | 1.1 ± 0.049 | 1 ± 0.019 | 1.08 ± 0.034 | 1.07 ± 0.041
0.01372 µM | 1.05 ± 0.037 | 1.12 ± 0.02 | 1 ± 0.027 | 1.03 ± 0.03 | 1.06 ± 0.02
0.04115 µM | 1.01 ± 0.021 | 1.04 ± 0.028 | 1.01 ± 0.028 | 1.02 ± 0.092 | 1.04 ± 0.07
0.1235 µM | 0.983 ± 0.025 | 1.04 ± 0.042 | 0.977 ± 0.029 | 0.9862 ± 0.0084 | 1.03 ± 0.018
0.3704 µM | 0.791 ± 0.032 | 0.81 ± 0.027 | 0.94 ± 0.018 | 0.645 ± 0.025 | 0.766 ± 0.01
1.111 µM | 0.271 ± 0.012 | 0.371 ± 0.028 | 0.129 ± 0.015 | 0.0656 ± 0.0071 | 0.378 ± 0.017
3.333 µM | 0.25 ± 0.0098 | 0.219 ± 0.01 | 0.071 ± 0.0085 | 0.0193 ± 0.0038 | 0.272 ± 0.014
10 µM | 0.176 ± 0.011 | 0.267 ± 0.0046 | 0.0364 ± 0.0029 | 0.0196 ± 0.00098 | 0.2611 ± 0.0019
